The structures appear in SMILES notation. Values joined by “and” are separate entries in the source; they are usually repeats but may differ in a detail not shown here. Equal values may be shown once. Toxic doses and inconclusive results are not listed.

The test system of this test is nude mice, LOX melanoma ip, survival T/C. The test can be described thus: NCI In Vivo Anticancer Drug Screen. Data for tumor model Human Amelanotic Melanoma (LOX) (intraperitoneal) in NU/NU BALB/C (nude) mice. To be noted: endpoint: median survival time, higher = longer survival. Here is the method:
The antitumor activity of compounds was measured in mice bearing transplantable tumors. Survival or tumor size were measured and the results are expressed as the measurement made in the treated group (T) divided by the measurement made in the vehicle treated control group (C). The tumor model used in this assay is Human Amelanotic Melanoma (LOX) (intraperitoneal) in NU/NU BALB/C (nude) mice

[1] abbreviates: dose: 75.0 mg/kg/injection, schedule: Q04DX003 (ip), vehicle: Klucel (hydroxypropylcellulose) (HPC).
Where [2] appears, read: dose: 300.0 mg/kg/injection, schedule: Q04DX003 (ip), vehicle: Klucel (hydroxypropylcellulose) (HPC).

With `CCOC(=O)c1ccc(NN=NCCF)cc1`, the T/C is 111 % of control (dose: 75.0 mg/kg/injection, schedule: Q04DX003 (ip), vehicle: distilled water + Tween-80 + alcohol); 106 % of control (dose: 150.0 mg/kg/injection, schedule: Q04DX003 (ip), vehicle: distilled water + Tween-80 + alcohol); 110 % of control (dose: 300.0 mg/kg/injection, schedule: Q04DX003 (ip), vehicle: distilled water + Tween-80 + alcohol); 100 % of control (dose: 600.0 mg/kg/injection, schedule: Q04DX003 (ip), vehicle: distilled water + Tween-80 + alcohol).
Regarding `CCCCOCN(COCCCC)C12CC3CC(CC(C3)C1)C2`, the T/C was 106 % of control (dose: 50.0 mg/kg/injection, schedule: Q04DX003 (ip), vehicle: saline with Tween-80); 97 % of control (dose: 100.0 mg/kg/injection, schedule: Q04DX003 (ip), vehicle: saline with Tween-80); 114 % of control (dose: 200.0 mg/kg/injection, schedule: Q04DX003 (ip), vehicle: saline with Tween-80); 120 % of control (dose: 400.0 mg/kg/injection, schedule: Q04DX003 (ip), vehicle: saline with Tween-80).
For `C=C1c2cccc(O)c2C(O)=C2C(=O)[C@]3(O)C(O)=C(C(N)=O)C(=O)[C@@H](N(C)C)[C@@H]3[C@@H](O)[C@H]12`, the T/C reads like this: (dose: 37.5 mg/kg/injection, schedule: Q04DX003 (ip), vehicle: Klucel (hydroxypropylcellulose) (HPC)) 94 % of control; under setting [1], 91 % of control; under setting [2], 92 % of control.
In the case of `COC(=O)NC1C(C)OC(OC2C/C=C(/C)C3C=CC4C(OC5CC(OC6CC(OC7CC(O)C(O)C(C)O7)C(OC7CC(O)C(OC)C(C)O7)C(C)O6)C(O)C(C)O5)C(C)CC(C)C4C3(C)/C(O)=C3\C(=O)OC4(CC(C)C(CO)=CC4/C=C\2C)C3=O)CC1(C)[N+](=O)[O-]` (centres undefined), the T/C runs as follows: (dose: 75.0 mg/kg/injection, schedule: Q04DX003 (ip), vehicle: water) 93 % of control; (dose: 150.0 mg/kg/injection, schedule: Q04DX003 (ip), vehicle: water) 120 % of control.
For `O=C1c2ccccc2C(Cl)(c2ccc(Cl)cc2)c2ccc(Cl)cc21` (centres undefined), the T/C runs as follows: (dose: 75.0 mg/kg/injection, schedule: Q04DX003 (ip), vehicle: saline with Tween-80) 93 % of control; (dose: 150.0 mg/kg/injection, schedule: Q04DX003 (ip), vehicle: saline with Tween-80) 116 % of control; (dose: 300.0 mg/kg/injection, schedule: Q04DX003 (ip), vehicle: saline with Tween-80) 92 % of control; (dose: 600.0 mg/kg/injection, schedule: Q04DX003 (ip), vehicle: saline with Tween-80) 87 % of control; (dose: 1200.0 mg/kg/injection, schedule: Q04DX003 (ip), vehicle: saline with Tween-80) 93 % of control.
As to `CO[C@H](/C(C)=C/C=C/C(C)=C/c1coc(C)n1)[C@H](C)[C@H]1C[C@@H](O)[C@@]2(C)O[C@H]2/C=C/[C@@H](C)[C@@H]2C[C@@H](CC(=O)O2)C[C@H]2O[C@@H]2C(=O)O1`, the T/C runs as follows: (dose: 0.09 mg/kg/injection, schedule: Q01DX009 (ip), vehicle: other) 176 % of control; (dose: 0.12 mg/kg/injection, schedule: Q04DX003 (ip), vehicle: other) 121 % of control; (dose: 0.13 mg/kg/injection, schedule: Q01DX009 (ip), vehicle: other) 180 % of control; (dose: 0.2 mg/kg/injection, schedule: Q01DX009 (ip), vehicle: other) 175 % of control; (dose: 0.2 mg/kg/injection, schedule: Q04DX003 (ip), vehicle: other) 108 % of control; (dose: 0.3 mg/kg/injection, schedule: Q01DX009 (ip), vehicle: other) 152 % of control and 196 % of control. The T/C is 162 % of control (dose: 0.44 mg/kg/injection, schedule: Q01DX009 (ip), vehicle: other); 122 % of control (dose: 0.55 mg/kg/injection, schedule: Q04DX003 (ip), vehicle: other); 93 % of control (dose: 0.66 mg/kg/injection, schedule: Q01DX009 (ip), vehicle: other).
Turning to `S=C(N/N=C1/CCCC/C1=N/NC(=S)N1CCOCC1)N1CCOCC1`, the T/C by setting is: (dose: 3.13 mg/kg/injection, schedule: Q04DX003 (ip), vehicle: saline with Tween-80) 116 % of control; (dose: 6.25 mg/kg/injection, schedule: Q04DX003 (ip), vehicle: saline with Tween-80) 117 % of control; (dose: 12.5 mg/kg/injection, schedule: Q04DX003 (ip), vehicle: saline with Tween-80) 110 % of control.
Take `Nc1nc2n[nH]nc2c(=O)[nH]1`: the T/C (dose: 37.5 mg/kg/injection, schedule: Q04DX003 (ip), vehicle: suspension in saline) is 164 % of control; the T/C (dose: 75.0 mg/kg/injection, schedule: Q04DX003 (ip), vehicle: suspension in saline) was 177 % of control; the T/C (dose: 150.0 mg/kg/injection, schedule: Q04DX003 (ip), vehicle: suspension in saline) is 217 % of control; the T/C (dose: 300.0 mg/kg/injection, schedule: Q04DX003 (ip), vehicle: suspension in saline) is 251 % of control.
For the compound `COC(=O)C1(F)C(=O)NC(=O)NC1OC` (centres undefined), the T/C runs as follows: (dose: 50.0 mg/kg/injection, schedule: Q04DX003 (ip), vehicle: Klucel (hydroxypropylcellulose) (HPC)) 110 % of control; (dose: 100.0 mg/kg/injection, schedule: Q04DX003 (ip), vehicle: Klucel (hydroxypropylcellulose) (HPC)) 98 % of control; (dose: 200.0 mg/kg/injection, schedule: Q04DX003 (ip), vehicle: Klucel (hydroxypropylcellulose) (HPC)) 92 % of control; (dose: 400.0 mg/kg/injection, schedule: Q04DX003 (ip), vehicle: Klucel (hydroxypropylcellulose) (HPC)) 104 % of control; (dose: 800.0 mg/kg/injection, schedule: Q04DX003 (ip), vehicle: Klucel (hydroxypropylcellulose) (HPC)) 94 % of control.
With `COC(=O)C1C2CCCN2OC1(C)CO` (centres undefined), the T/C (dose: 30.0 mg/kg/injection, schedule: Q04DX003 (ip), vehicle: saline) is 103 % of control; the T/C (dose: 60.0 mg/kg/injection, schedule: Q04DX003 (ip), vehicle: saline) is 97 % of control; the T/C (dose: 62.5 mg/kg/injection, schedule: Q04DX003 (ip), vehicle: saline with Tween-80) was 111 % of control; the T/C (dose: 120.0 mg/kg/injection, schedule: Q04DX003 (ip), vehicle: saline) is 99 % of control; the T/C (dose: 240.0 mg/kg/injection, schedule: Q04DX003 (ip), vehicle: saline) is 89 % of control; the T/C (dose: 250.0 mg/kg/injection, schedule: Q04DX003 (ip), vehicle: saline with Tween-80) was 101 % of control. The T/C is, setting by setting: (dose: 500.0 mg/kg/injection, schedule: Q04DX003 (ip), vehicle: saline with Tween-80) 100 % of control; (dose: 1000.0 mg/kg/injection, schedule: Q04DX003 (ip), vehicle: saline with Tween-80) 98 % of control.
Regarding `CC(O)C1(O)C(O)CC(OC2c3cc4c(c(O)c3[C@@H]3C[C@@]2(C)OC32C=c3cc[nH]c3=N2)C(=O)c2cccc(O)c2C4=O)OC1C` (some centres undefined), the T/C is 108 % of control (dose: 3.75 mg/kg/injection, schedule: Q04DX003 (ip), vehicle: saline with Tween-80); 112 % of control (dose: 7.5 mg/kg/injection, schedule: Q04DX003 (ip), vehicle: saline with Tween-80); 117 % of control (dose: 15.0 mg/kg/injection, schedule: Q04DX003 (ip), vehicle: saline with Tween-80); 117 % of control (dose: 30.0 mg/kg/injection, schedule: Q04DX003 (ip), vehicle: saline with Tween-80); 91 % of control (dose: 60.0 mg/kg/injection, schedule: Q04DX003 (ip), vehicle: saline with Tween-80).
In the case of `O=NN(CCCl)C(=O)Oc1ccc(OC(=O)N(CCCl)N=O)cc1`, the T/C by setting is: (dose: 20.0 mg/kg/injection, schedule: Q04DX003 (ip), vehicle: Klucel (hydroxypropylcellulose) (HPC)) 118 % of control; (dose: 40.0 mg/kg/injection, schedule: Q04DX003 (ip), vehicle: Klucel (hydroxypropylcellulose) (HPC)) 94 % of control.
With `CN(C)C(=O)SC1=C(c2c(Cl)cccc2Cl)C(=O)c2ccccc21`, the T/C was 103 % of control and 110 % of control under setting [1]; 112 % of control and 97 % of control (dose: 150.0 mg/kg/injection, schedule: Q04DX003 (ip), vehicle: Klucel (hydroxypropylcellulose) (HPC)); 109 % of control and 92 % of control under setting [2]; 110 % of control and 123 % of control (dose: 600.0 mg/kg/injection, schedule: Q04DX003 (ip), vehicle: Klucel (hydroxypropylcellulose) (HPC)); 105 % of control (dose: 1200.0 mg/kg/injection, schedule: Q04DX003 (ip), vehicle: Klucel (hydroxypropylcellulose) (HPC)).

Values taken from PubChem BioAssay AID280 (DTP/NCI, 2004).
